The subject of the experiment is VSV-d51-GFP. It counts as cell-based.

The text below walks through data of patent US20110044952A1, “AMPLIFICATION OF CANCER-SPECIFIC ONCOLYTIC VIRAL INFECTION BY HISTONE DEACETYLASE INHIBITORS” (Ottawa Health Research Institute, priority 2007, published 2011).

As to `O=C(/C=C/c1cccc(S(=O)(=O)Nc2ccccc2)c1)NO` [PXD101], the “amount of GFP-positive cells as an indication of VSV replication” value is recorded as “increased the amount of GFP-positive cells”. Regarding `O=C(CCCCCCC(=O)Nc1ccccc1)NO` [SAHA, suberoylanilide hydroxamic acid], the “amount of GFP-positive cells as an indication of VSV replication” value is “increased the amount of GFP-positive cells”. The same measure for `CCCC(CCC)C(=O)O` [VPA]: “little to no effect”; for `Nc1ccccc1NC(=O)c1ccc(CNC(=O)OCc2cccnc2)cc1` [MS-275]: “increased the amount of GFP-positive cells”.
